The conditions of data set [1]: pH 7.4.
Procedure: (§6) The lipophilicity of the radiolabelled test molecules was also measured by means of an octanol:saline partition coefficient. […] Centrifugation separated the hydrophobic (octanol) phase and hydrophilic (saline) phase and 100 μL samples in triplicate were taken for radioactive liquid scintillation counting on a Tricarb 2900TR liquid scintillation counter (Perkin-Elmer; Boston, MA, USA). The partition coefficient was calculated as the ratio of radioactivity in the octanol phase to the radioactivity in the aqueous phase.
Data set [2] has as its system [^3H]-ADMA transport across the blood-brain and blood-CSF barriers. The experiment in a line: cross-inhibition, in situ perfusion: [^3H]-ADMA with 100 μM unlabelled L-arginine. Format: in vivo, mouse. As to conditions: for inhibition of [^3H]-ADMA uptake: 100 μM unlabelled L-arginine; for inhibition at 100 µM: Mus musculus. The procedure:
(§1) Self-inhibition experiments were also performed. […] Cross-competition experiments were also performed.
(§2) The percentage change in the RTissue uptake values achieved in the absence or presence of an unlabelled inhibitor can be calculated by means of Eq 4.
(§3) %change=RTissue−RInhibition/RTissue×100 Eq 4
(§4) We define RInhibition as the RTissue uptake in the presence of an inhibitor in the artificial plasma.
(§5) A decrease in the uptake of radiolabelled solute in the presence of unlabelled inhibitor is indicative of a saturable influx transport system. Conversely, an increase in the uptake of radiolabelled solute in the presence of unlabelled inhibitor is indicative of a saturable efflux transport system.

The test system of data set [3] is [^3H]-arginine transport across the blood-brain and blood-CSF barriers. Kind of data set: self-inhibition, in situ perfusion: [^3H]-arginine with 100 μM unlabelled L-arginine. In kind it is in vivo, mouse. The procedure: as §1, §2, §3, §4, §5
A further data set has as its system CAT1. Conditions: HEK293 overexpressing CAT1; read-out: IC50, inhibition of CAT1-mediated cellular uptake of ADMA; cited from earlier work.
For data set [4] the following is noted: 500 μM; isolated incubated rat choroid plexus; cited from earlier work.
A short description of data set [5]: in situ brain/choroid plexus perfusion: CNS uptake of [^3H]-arginine, [^3H]-ADMA and [^14C]-sucrose (multiple-time and single-time uptake analysis). As to conditions: for Kin: single-time point analysis, corrected for [^14C]-sucrose; for Kin / [^3H]-ADMA/ [^3H]-arginine, rate of uptake: 10-minute perfusion; for ability to cross the blood-brain and blood-CSF barriers: in situ perfusion; for Kp at 30 min, […] / Kp at […], […]: male, BALB/c, mouse.
Procedure: All animals used in procedures were adult male BALB/c mice (between 23 g and 25 g) sourced from Harlan Laboratories, Oxon, UK, unless otherwise stated.
Animals were weighed immediately before the administration of the anaesthetic to ensure correct dosage. Domitor® (medetomidine hydrochloride) and Vetalar® (ketamine) were both purchased from Harlan Laboratories (Cambridge, UK). All animals were terminally anaesthetised (2 mg/kg Domitor® and 150 mg/kg Vetalar® injected intraperitoneally), and a lack of self-righting and paw-withdrawal reflexes (as surrogate indicators of consciousness) thoroughly checked prior to and during all procedures. If needed, additional anaesthetic was administered via the same route. […] At the end of the in situ brain perfusion procedure the animal was killed by decapitated under non-recovery anaesthesia. Animals were heparinised with 100 units heparin (in 0.9% m/v NaCl(aq), Harlan Laboratories; Oxon, UK), administered via the intraperitoneal route prior to surgery.
The in situ brain/choroid plexus perfusion method is designed to directly perfuse the brain with artificial plasma via a cannula placed in the heart. Artificial plasma is prepared to mimic the ionic composition of blood, and transporter inhibitors can be added in known concentrations and delivered to the brain for defined periods of time.
The left ventricle of the heart was cannulated with a 25G x 10 mm butterfly-winged needle connected to the perfusion circuit. […] The right atrium of the heart was sectioned to allow outflow of the artificial plasma. […] Radiolabelled and unlabelled test molecules were infused into the inflowing artificial plasma for periods up to 30 minutes.
At the set perfusion time a CSF sample was taken by inserting a pulled glass micropipette connected to silicon tubing and a syringe into the cisterna magna. Gentle suction was applied, and CSF was withdrawn. Only clear CSF samples were processed and taken for analysis. Samples contaminated with blood were discarded. The animal was then decapitated and the brain removed. Specific brain samples including the circumventricular organs (CVOs) were taken using a Leica S4E L2 stereomicroscope (Leica; Buckinghamshire, UK). The brain samples included the frontal cortex, caudate nucleus, occipital cortex, hippocampus, hypothalamus, thalamus, pons and cerebellum. The CVOs included the choroid plexus, pituitary gland and pineal gland.
All samples (brain regions, capillary depletion brain homogenate, pellet and supernatant, CVOs, CSF and plasma samples) were solubilised in 0.5 mL tissue solubiliser (Solvable; Perkin-Elmer; Boston, MA, USA). After incubating the samples at room temperature for 48 h, 4 mL scintillation fluid (Lumasafe®; Perkin-Elmer; Boston, MA, USA) was added to each before vigorous vortexing.

The subject of a further data set is hCMEC/D3 cells. Conditions: [^3H]-arginine 7 nM; hCMEC/D3 accumulation; cited from earlier work.
A short description of data set [6]: capillary depletion analysis after in situ brain perfusion. Format: in vivo, mouse. Conditions: 10-minute perfusion; for Kin: single-time point analysis, corrected for [^14C]-sucrose. The procedure:
The microvasculature within a sample of brain tissue can be separated from the brain parenchyma using capillary depletion analysis. Following perfusion, the remaining brain tissue after microdissection of the regions described above (typically 200–300 mg) underwent capillary depletion following a method modified for mouse. […]

A short description of data set [7]: octanol:saline partition coefficient. As to conditions: pH 7.4; for octanol-saline partition coefficient: mean ± SEM of 3 tubes.
Procedure: as §6
The mark [8] stands for this setting: 100μM unlabelled L-arginine, CSF, 10 minutes.

Several values for one entry are separate records, joined by “and”; a condition that tells them apart may be missing. Equal values may be shown once. Read-outs that look alike come from different tables or passages of the source. Some results are limits rather than exact numbers.

Regarding `N=C(N)NCCC[C@H](N)C(=O)O` [L-arginine], in data set [1], the octanol-saline partition coefficient worked out at 0.00149±0.00016. The “inhibition of [^3H]-ADMA uptake” value in data set [2] (CSF, pineal gland, choroid plexus and pituitary gland, 10 minutes) was “up to 78.6%”; in data set [2] (brain regions, 10 minutes), “up to 80.4%”. Moreover, the “effect on [^3H]-ADMA distribution” value in data set [2] (setting [8]) was “no effect”. For the same molecule, the inhibition at 100 µM in [2] (read-out: inhibition of [^3H]-ADMA distribution) was at most 80.8%. The “inhibition of [^3H]-arginine uptake” value in [3] (setting [8]) is 62.2%; in [3] (100μM unlabelled arginine, average of capillary depletion samples, 10 minutes), “approximately 56%”; in data set [3] (100μM unlabelled arginine, average of eight brain regions, 10-minute perfusion) it was “approximately 67%”. Further, the “inhibition of [^3H]-arginine distribution” value was determined as 57.3% in data set [3] (100μM unlabelled arginine, choroid plexus, 10 minutes); 39.4% in [3] (100μM unlabelled arginine, pineal gland, 10 minutes); 48.1% in data set [3] (100μM unlabelled arginine, pituitary gland, 10 minutes). Further, the IC50 in the data set with CAT1 was 227 µM.

With `CNC(=N)NCCC[C@H](N)C(=O)O` [N^G-methyl-L-arginine], the “effect on [^3H]-arginine uptake” value in [4] is listed as “can be inhibited”.

Take `N=C(N)NCCC[C@H](N)C(=O)O` [[^3H]-arginine, reference compound]: the Kin in data set [5] (CSF) came out at 1.08 ± 0.24 µL/min/g; in data set [5] (Caudate nucleus), 5.40 ± 0.67 µL/min/g; in data set [5] (Cerebellum), 5.10 ± 0.50 µL/min/g; in [5] (Frontal Cortex), 5.84 ± 0.86 µL/min/g; in data set [5] (Hippocampus) it was 4.72 ± 0.56 µL/min/g; in data set [5] (Hypothalamus), 7.26 ± 1.76 µL/min/g. Further, the Kin in data set [5] (Occipital Cortex) is 4.98 ± 0.72 µL/min/g; in data set [5] (Pons), 5.58 ± 0.97 µL/min/g; in data set [5] (Thalamus), 5.87 ± 1.07 µL/min/g; in data set [6] (Homogenate), 3.97 ± 0.67 µL/min/g; in data set [6] (Pellet), 0.70 ± 0.10 µL/min/g; in [6] (Supernatant) it was 2.35 ± 0.42 µL/min/g. Moreover, in data set [5] (eight brain regions and capillary depletion samples), the “ability to cross the BBB in situ relative to [^3H]-ADMA” value was “more than two-fold in most cases”. Moreover, the “ability to cross the blood-brain and blood-CSF barriers” value in data set [5] was “can cross the blood-brain barrier (BBB) and the blood-CSF barrier”. The Kp at 30 min, […] was 1.2 ± 0.251 in [5] (CSF), 1.77 ± 0.316 in data set [5] (frontal cortex) and around 1.85 in data set [5] (pons). The Kp at […], […] in data set [5] (CSF) was found to be 0.0441 ± 0.0141; in data set [5] (frontal cortex) it was 0.29 ± 0.0403. Also, the “Vi relative to [^14C]-sucrose space in the same experiment” value in data set [5] (multiple-time uptake analysis over 30 minutes, data not shown) is reported as “up to 13 fold”. The “ability to cross brain capillary endothelial cell membranes compared to [^3H]-ADMA (38 nM)” value in the data set on hCMEC/D3 cells is given as “more than -three to -five-fold”.

For the molecule `N=C(N)NCCC[C@H](N)C(=O)O` [arginine], the inhibition at 100 µM in data set [2] (read-out: inhibition of [^3H]-ADMA (62.5 nM) transport) fell in the range of 64.3 to 80.8%.

As for [^3H]-ADMA [reference compound], the “octanol-saline partition coefficient, single tube” value in data set [7] (Tube A, B or C) is 0.00217 and 0.00237 and 0.00225. Moreover, the values for the octanol-saline partition coefficient in data set [7] and in data set [7] (listed as 3H ADMA) were 0.00226±0.00006 and 0.00226, respectively. Also, the “[^3H]-ADMA/ [^3H]-arginine, rate of uptake” value in [5] (CSF) is 249.5%; in [5] (Caudate nucleus) it was 44.6%; in data set [5] (Cerebellum) it was 31.7%; in data set [5] (Frontal Cortex), 42.7%; in data set [5] (Hippocampus) it was 46.1%; in data set [5] (Hypothalamus), 41.9%. Further, the “[^3H]-ADMA/ [^3H]-arginine, rate of uptake” value worked out at 45.2% in data set [5] (Occipital Cortex); 44.2% in [5] (Pons); 35.8% in data set [5] (Thalamus); 31.9% in [6] (Homogenate); 11.4% in [6] (Pellet); 36.6% in [6] (Supernatant). For the same molecule, the “uptake into the CSF (CSF to plasma)” value in data set [5] (CSF, […], data uncorrected for [^14C]-sucrose) was “approximately 4%”. Further, the Kin in data set [5] (CSF) is 2.70 ± 0.90 µL/min/g; in data set [5] (Caudate nucleus), 2.41 ± 0.29 µL/min/g; in data set [5] (Cerebellum) it was 1.62 ± 0.19 µL/min/g; in data set [5] (Frontal Cortex), 2.49 ± 0.35 µL/min/g; in [5] (Hippocampus) it was 2.17 ± 0.17 µL/min/g; in data set [5] (Hypothalamus), 3.04 ± 0.30 µL/min/g. Besides, the Kin was determined as 2.25 ± 0.16 µL/min/g in [5] (Occipital Cortex); 2.46 ± 0.34 µL/min/g in [5] (Pons); 2.10 ± 0.17 µL/min/g in [5] (Thalamus); 1.27 ± 0.56 µL/min/g in data set [6] (Homogenate); 0.08 ± 0.20 µL/min/g in data set [6] (Pellet); 0.86 ± 0.16 µL/min/g in data set [6] (Supernatant). Besides, the “distribution into the choroid plexus (tissue to plasma)” value is “approximately 40%” in data set [5] (30 minutes) and “approximately 240%” in [5] (peak at 10 minutes). Besides, the “distribution (RBRAIN, tissue to plasma) corrected for [^14C]-sucrose” value worked out at 27.64±4.30% in [5] (frontal cortex, 20 minutes); 10.41±2.77% in data set [5] (frontal cortex, 30 minutes); 9.86±1.43% in data set [5] (frontal cortex, […]). Also, in data set [5], the “ability to cross the blood-brain and blood-CSF barriers” value is “can cross the blood-brain barrier (BBB) and the blood-CSF barrier”. In addition, the CNS-to-blood efflux result in [5] (multiple-time uptake studies, loss of linearity) is on record as “significant CNS-to-blood efflux”.

Broadly, the inhibition is how much of the control response was suppressed. The term IC50 denotes the point on the concentration scale where inhibition reaches its midpoint.

Source of the values: PMC11501026, “L-Arginine and asymmetric dimethylarginine (ADMA) transport across the mouse blood-brain and blood-CSF barriers: Evidence of saturable transport at both interfaces and CNS to blood efflux” (PLOS ONE, 2024).
